This note sets out measurements from BindingDB's records for doi:10.1021/jm100342z (Vernalis R&D, 2010).

This assay is described as follows: Binding affinity to Hsp70 nucleotide binding domain in human BT474 cells.

For the molecule `N#Cc1ccc(COC[C@H]2O[C@@H](n3c(NCc4ccc(Cl)c(Cl)c4)nc4c(N)ncnc43)[C@H](O)[C@@H]2O)cc1` [adenosine-derived inhibitor (Grp78), 13], the 50% inhibitory concentration (IC50) is 10.4 µM.

The IC50 is the midpoint of a concentration-inhibition curve. A low value points to inhibition by little substance.
